Data reported in patent publication US12280051B2, “Pharmaceutical composition for topical wound treatment” (CONSEJO NACIONAL DE INVESTIGACIONES CIENTIFICAS Y TECNICAS, priority 2021, dated 2025).

Key:
[1] = test system: Staphylococcus aureus MTCC 96; details: cited from earlier work
[2] = test system: Pseudomonas aeruginosa. MTCC741; details: cited from earlier work
[3] = test system: Intercellular adhesion molecule-1 (ICAM-1); details: cited from earlier work
[4] = test system: chicken chorioallantoic membrane; assay: Chicken Chorioallantoic Membrane Assay (CAM), angiogenesis; format: in vivo; details: 300 μl onto the chorioallantoic membrane; 24 and 48 hours; ethosuximide solutions 0.5 and 3.0 mg/mL; FIG. 18
Source text: Angiogenesis is a complex biological process involving the generation of new blood vessels from the pre-existing vasculature. The process involves the cooperation of several different cell types, and in particular involves proliferation, survival, and tissue invasion by activated endothelial cells. Most investigations of angiogenesis include at least one in vivo study. The Chicken Chorioallantoic Membrane Assay (CAM) is suitable for a variety of applications. In this assay, the angiogenic properties of different concentrations of ethosuximide and lactic acid and the mixtures were tested.
Eggs commercial lines with a weight between 30-90 g were used. By using an ovoscope the viability of the chorioallantoic membrane was determined to select only fertilized and viable eggs. […]
Then, 300 μl of the following solutions were slowly placed onto the chorioallantoic membrane: Ethosuximide 3.0 mg/mL; Ethosuximide 0.5 mg/mL; M0; M13; M15; LAPS; Negative control (PBS). Each solution was evaluated by triplicade. […]
Angiogenesis tests: Digital images analysis was made by using the software Image J plus. The length of vascularization (cm) per CAM area (cm^2) was evaluated before solution addition (basal) and after 24 and 48 hours. Then, the percentage of increase of vascularization was calculated.

VEGF [5] = assay: VEGF expression in macrophages J774 (real-time PCR); format: cell-based, Murine; details: Macrophages J774 + LPS 25 ng/mL; Ethosuximide 0.5 mg/mL; 24 hours; FIG. 19
Method: (§1) Cell lines were grown and maintained following the protocols of the American Type Culture Collection (ATCC, Rockville, MD, USA), using Minimum Essential Medium (MEM), Fetal Bovine Serum (FBS), L-glutamine.
(§2) To evaluate the expression of the VEGF genes, the following cell lines were used: • a. Murine macrophage cell line J774 (ATCC), stimulated with 25 ng/mL of lipopolysaccharides (LPS) from E. coli (L-8274, Sigma). • b. Adult human skin keratinocytes cell line HaCaT(ATCC).
(§3) Cells were plated for 24 hours with Ethosuximide at different concentrations to evaluate their effect on gene expression.
(§4) Monolayers of the J774 Macrophage cell lines and HaCaT Keratinocytes were used, until confluent cells were obtained, which were stimulated with Ethosuximide at 0.5 and 3.0 mg/mL as indicated in example 1, in 12-well plates, at a final volume of 300 μL/well. For the J774 macrophage line, all treatments were supplemented with LPS (25 ng/mL), using MEM 1× with LPS (25 ng/mL) as control (Control+LPS). HaCaT keratinocytes were treated with the concentrations of ethosuximide in MEM with 10% FBS, using 1× MEM as a control. […]
(§5) Levels of VEGF and GAPDH mRNA were measured in triplicate for each sample using the StepOnePlus Real-Time PCR Systems (Applied Biosystems) and the Power Up SYBR Green Master Mix (ROCHE) kit. […] Group means were determined and normalized to the MEM group for each experiment.

VEGF [6] = assay: VEGF expression in keratinocytes HaCaT (real-time PCR); format: cell-based, human; details: Ethosuximide 3.0 mg/mL, 24 hours, FIG. 19
Method: as §1, §2, §3, §4, §5

[7] = Chelating capacity: remaining Calcium (unchelated); format: physicochemical; details: pH 7.0
Method: The following solutions were prepared in Mixing solvent (MS) at pH 7.0. All solutions were supplemented with ZnCl2 (1 ppm), CaCl2 (100 ppm) and MgCl2 (25 ppm). The concentrations of Zn, Ca and Mg used here, were close to those typically found in exudates from chronic wounds. The pH chosen for the reaction (7.0) would result from the combination of compositions of present invention (pH 5.5) and the exudate from a chronic wound (pH 8.5). Prepared solutions were: EDTA (0.25, 0.50 and 0.75 mg/mL) as indicated in example 1; M0, M13, […] were elaborated according to examples 18 to 21. and LAPS deproteinized: Over a LAPS 24 h sample obtained according to example 1, a deproteinization process was performed using reagents and indications of the commercial kit employed. Measurement of remaining Calcium (unchelated) in the prepared solutions: A commercial Calcium measurement kit (Wiener Lab) was used. This is a colorimetric method based on the reaction of calcium with o-cresolphthalein complexone (o-CPC) at alkaline pH, giving a photocolorimetrically measurable magenta complex at 570 nm.

[8] = Chelating capacity: remaining Zinc (unchelated); format: physicochemical; details: pH 7.0; EDTA at all concentrations tested; combination of Zinc, Calcium and Magnesium
Method: The following solutions were prepared in Mixing solvent (MS) at pH 7.0. All solutions were supplemented with ZnCl2 (1 ppm), CaCl2 (100 ppm) and MgCl2 (25 ppm). The concentrations of Zn, Ca and Mg used here, were close to those typically found in exudates from chronic wounds. The pH chosen for the reaction (7.0) would result from the combination of compositions of present invention (pH 5.5) and the exudate from a chronic wound (pH 8.5). Prepared solutions were: EDTA (0.25, 0.50 and 0.75 mg/mL) as indicated in example 1; M0, M13, […] were elaborated according to examples 18 to 21. and LAPS deproteinized: Over a LAPS 24 h sample obtained according to example 1, a deproteinization process was performed using reagents and indications of the commercial kit employed. Measurement of remaining Zinc (unchelated) in the prepared solutions: A commercial Zinc measurement kit (Randox Lab) was used. This is a colorimetric method based on the reaction of Zinc with Dimethylglyoxime and Salicylaldoxin at alkaline pH, giving a colored complex photocolorimetrically measurable at 560 nm. For the determination of Zinc in LAPS, a previous deproteinization step was necessary. Therefore, equal parts of LAPS and deproteinizing reagent (Trichloroacetic Acid 370 mmol/L) were mixed in conical tubes, homogenized and centrifuged for 10 min at 10,000×g. The supernatant was used for the test.

highly polymerized DNA = assay: DNAse activity halos in DNAse agar and conservation in time; format: biochemical; details: DNAse 0.97 μg/mL alone (C2); DNAse agar, 24 hours at 32° C.
Source text: DNAse agar is a culture medium that contains highly polymerized DNA and agar as solidifying agents. The DNA is the substratum of the deoxyribonuclease enzyme (DNAse) which hydrolyzes it. This medium allows to detect DNAse activity in different samples and microorganisms. The presence of the enzyme could be visualized adding hydrochloric acid 1N. The hydrolyzed deoxyribonucleic acid presents transparency while the polymerized deoxyribonucleic acid precipitates generating resulting in a opacity on the culture media
Plates preparation: DNAse agar plates were prepared according to manufacturer recommendations (Britania, CABA, Argentina). A volume of 20 mL of the molten media was employed reaching an agar height of 2 mm in the plates. Wells of 5 mm o diameter were made over the agar using a sterile punch. Therefore, the sown volume in each well was π×r^2×h=π×(2.5 mm)^2×2 mm=40 mm=40 μL. […]
Analyzed samples: LAPS, M0, M13, M15, M16 (All gelled with hydroxyethyl cellulose) stored at 25° C. and 4° C. DNAse activity was measured once a week for 6 months. […]
Then, the plates were rested and were observed up to no more than 5 minutes after adding the HCl. DNase activity was measured analyzing the transparent evanescence around the planting zone recording in millimeters the halos diameter.

In the case of “XYLENTRA®: synthetically engineered antimicrobial peptide of U.S. Pat. No. 10,285,938 B2”, the antibacterial activity [1] is listed as “significant antibacterial activity” and the antibacterial activity [2] is listed as “significant antibacterial activity”.

In the case of CC(=O)N[C@@H](CS)C(=O)O [NAC, N-acetyl cysteine], the ICAM-1 expression [3] is given as “concentration dependent inhibition”.

In the case of CCC1(C)CC(=O)NC1=O (stereo not shown) [Ethosuximide, ethosuximide], the “percentage of increase of vascularization (angiogenic effect)” value [4] is reported as “showed angiogenic properties although it was better at 0.5 mg/mL than 3.0 mg/mL”, the “VEGF expression level normalized to GAPDH” value (VEGF [5]) is reported as “induced” and the “VEGF expression level normalized to GAPDH” value (VEGF [6]) is reported as “induced”.

For O=C(O)CN(CCN(CC(=O)O)CC(=O)O)CC(=O)O [EDTA, ethylenediaminetetraacetic acid], the Calcium chelation percentage ([7]; EDTA 0.25 mg/mL) was “not able to chelate all the available calcium”, the Calcium chelation percentage ([7]; EDTA at 0.50, 0.75 and 1.00 mg/mL, combination of zinc, calcium and magnesium) was “completely” and the Zinc chelation percentage [8] was “completely chelate”.

B1: DNAse: rh-Dornase alfa (recombinant human DNase, Roche) diluted in mixing solvent; C2 0.97 μg/mL, C4 3.90 μg/mL (protein, UniProt P24855 23-282, looked up)
Deoxyribonuclease-1: LKIAAFNIQTFGETKMSNATLVSYIVQILSRYDIALVQEVRDSHLTAVGKLLDNLNQDAPDTYHYVVSEPLGRNSYKERYLFVYRPDQVSAVDSYYYDDGCEPCGNDTFNREPAIVRFFSRFTEVREFAIVPLHAAPGDAVAEIDALYDVYLDVQEKWGLEDVMLMGDFNAGCSYVRPSQWSSIRLWTSPTFQWLIPDSADTTATPTHCAYDRIVVAGMLLRGAVVPDSALPFNFQAAYGLSDQLAQAISDHYPVEVMLK
In the case of B1, the “halos of DNAse activity” value (highly polymerized DNA) is reported as 8-10 mm.
